Results reported in patent US6689807B1, “HMG CoA reductase inhibitors for promoting angiogenesis” (priority 2000, dated 2004).

How the values were obtained:
Akt = Akt serine 473 phosphorylation, western immunoblot in HUVEC; type: cell-based, human
[1] = tested on: tumor-induced blood-vessel formation; conditions: mouse model of tumor-cell induced angiogenesis; cited from earlier work
HUVEC = assay: Apoptosis assays in serum-free HUVEC (Annexin-V/propidium iodide, Hoechst 33342 pyknotic nuclei); type: cell-based, human; conditions: serum-free media
Method: HUVEC cultures were plated on chamber slides at a density of 4×10^4 cells/well. […] Parallel cultures were infected with an adenoviral construct expressing dominant-negative Akt (dnAKT) 24 hours prior to the change to serum-free media.
Data are shown as the mean ±S.E.M. (n=4-6, *p<0.05).
Fluorescence-labeled Annexin-V-FLUOS staining of HUVEC was performed according to manufacturer's instructions (Roche Molecular Biochemicals). Briefly, cells were plated on to chamber slides (Nunc) and placed in EBM for 3 hours. […] For detection of pyknotic nuclei, cells were stained with Hoechst 33342. […] Infection with adenovirus encoding dominant-negative Aktl was initiated 24 hours prior to incubation in EBM media.

VEGF = conditions: cultured primary endothelial cells; cited from earlier work
[2] = tested on: bovine aortic endothelial cells; assay: NO release from endothelial cells (chemiluminescence); type: cell-based; conditions: BAEC
Method: Nitric oxide release was measured in the cell supernatant by chemiluminescent detection of […] (NO2^−), the stable breakdown product of NO. […] In some samples, wortmannin was added 1 hour prior to stimulation. Cell supernatants were collected, deproteinized, and refluxed in glacial acetic acid containing sodium iodide. Processed specimens were measured with a NO analyzer (Sievers).

ischemic hindlimb = assay: Limb revascularization studies after unilateral femoral artery resection; type: in vivo; conditions: rabbit, simvastatin 0.1 mg/kg daily i.p., 40 days
Method: Male New Zealand white rabbits weighing 3.0 to 3.5 kg were utilized to examine the effects of Akt-signaling and simvastatin-mediated stimulation of vessel growth. For the infusion model, the left femoral artery and major side branches were excised from their proximal origin to within 2 cm of the bifurcation into the saphenous and popliteal arteries. After 10 days, to permit postoperative recovery, the distal femoral artery was re-exposed and, after temporary clamping inflow veins, 50 ml of saline, saline with 3.5×10^10 viral particles of Ad-βgal, or saline with 3.5×10^10 viral particles of Ad-myrAkt was infused via the distal femoral artery and incubated for 15 minutes. […] The remainder of the animals (n=6 per experimental group) were analyzed for limb revascularization at 31 days after femoral artery resection. […] Animals in these groups (n=6 each) were analyzed for limb revascularization 40 days after surgery. Calf blood pressure was measured in both limbs by Doppler flow meter (model 1059, Parks Medical Electronics, Aloha, Oreg.). […] Collateral arteries were evaluated by internal iliac angiography. […] Nonionic contrast media (Isovue-370, Squibb Diagnostics, New Brunswick, N.J.) was injected at a rate of 1 ml/sec and serial images of the ischemic hindlimb were recorded at a rate of 1 film/sec for 10 seconds. […] Angiographic luminal diameter (d) was determined from the angiograms. […]

eNOS = assay: Phosphorylation of endogenous eNOS in vivo (32P-orthophosphate labelled HUVEC); type: cell-based, human; conditions: simvastatin 1 μM or VEGF 100 ng/ml, 30 min
Method: Alternatively, HUVEC were infected with adenovirus expressing constitutively-active Akt (myrAkt) 24 hours prior to radiolabeling and assayed for endogenous eNOS phosphorylation in the absence of Akt agonist. […] Endogenous eNOS protein was immunoprecipitated, separated by SDS-PAGE, and its phosphorylation was visualized by autoradiography. c, COS-7 cells co-transfected with eNOS (wt: wildtype eNOS, S1179A: serine 1179 mutant) and Akt (HA-Akt) expression plasmids. […] Immunoprecipitates of wild-type or mutant eNOS were examined for ^32P-phosphate incorporation by autoradiography following SDS-PAGE.
The lysate was subjected to immunoprecipitation using mouse monoclonal anti-eNOS antibody (Transduction Laboratories). Radiolabeled phosphate incorporation into each protein was visualized after SDS-PAGE (7.5%) by autoradiography.

O=c1cc(N2CCOCC2)oc2c(-c3ccccc3)cccc12 [LY294002]
total Akt or eNOS protein levels (Akt; HUVEC): no effect

CC[C@H](C)C(=O)O[C@H]1C[C@@H](C)C=C2C=C[C@H](C)[C@H](CC[C@@H]3C[C@@H](O)CC(=O)O3)[C@H]21 [lovastatin]
tumor-induced blood-vessel formation [1]: no angiostatic effects

CC(O)(CCO)CC(=O)O [mevalonate, L-mevalonate]
total Akt or eNOS protein levels (Akt; HUVEC): no effect
effect on simvastatin-induced Akt phosphorylation (Akt; HUVEC pretreated 1 hour (mevalonate 200 μM, wortmannin 500 nM, LY294002 10 μM), then 1 μM simvastatin 30 minutes): blocked
effect on VEGF-induced Akt phosphorylation (Akt; HUVEC, mevalonate 200 μM, 100 ng/ml VEGF): no effect
effect on VEGF-induced endothelial cell survival (HUVEC): no effect
effect on statin-induced endothelial cell survival (HUVEC): blocked
effect on survival in the absence of statin or VEGF stimulation (HUVEC): no detectable effect

CC[C@H](C)C(=O)O[C@H]1CCC=C2C=C[C@H](C)[C@H](CC[C@@H]3C[C@@H](O)CC(=O)O3)[C@H]21 [mevastatin]
induction of VEGF expression (VEGF): completely blocked

CCC(C)(C)C(=O)O[C@H]1C[C@@H](C)C=C2C=C[C@H](C)[C@H](CC[C@@H]3C[C@@H](O)CC(=O)O3)[C@H]21 [simvastatin]
simvastatin concentration at which maximal Akt phosphorylation occurs (Akt; HUVEC, serine 473, within 30 minutes): 1.0 µM
NO release ([2]; simvastatin 1 hour): 0.48±0.07 nmol NO2^−/ml
capillary density in adductor muscle (ischemic hindlimb): 253±23 capillaries/mm^2
Doppler flow (ischemic hindlimb; maximal flow after papaverine): 46.6 ± 3.0 mL/min

COC[C@H]1OC(=O)c2coc3c2[C@@]1(C)C1=C(C3=O)[C@@H]2CCC(=O)[C@@]2(C)C[C@H]1OC(C)=O [wortmannin]
total Akt or eNOS protein levels (Akt; HUVEC): no effect
simvastatin-stimulated NO release with wortmannin treatment ([2]; wortmannin added 1 hour prior to simvastatin): 0.26±0.05 nmol NO2^−/ml
basal NO synthesis with wortmannin treatment ([2]; wortmannin, no simvastatin): 0.29±0.07 nmol NO2^−/ml

TNF-α
tumor-induced blood-vessel formation [1]: no angiostatic effects

VEGF
Akt serine 473 phosphorylation (Akt; HUVEC, simvastatin within 30 minutes, VEGF 100 ng/ml): robust activation
phosphate incorporation in endogenous eNOS (eNOS): increase
